Assay results published in the Deep4Chem optical property database.
Each block holds one molecule with its values, some of them ahead of it.

Assay: solvent given as SMILES

Structure (SMILES): CN(CC(O)c1cccc(O)c1)c1ccc([N+](=O)[O-])c(C2CC(c3cccc4ccccc34)=NN2c2ccccc2)c1 (stereo not given)
emission maximum (in C1CCCCC1): 495 nm
emission maximum (in C1CCOC1): 467 nm
emission maximum (in C1COCCO1): 454 nm
emission maximum (in CC#N): 526 nm
emission maximum (in CC(C)O): 511 nm
emission maximum (in CCOC(C)=O): 498 nm
emission maximum (in CCOCC): 497 nm
emission maximum (in CO): 514 nm
emission maximum (in Cc1ccccc1): 497 nm
emission maximum (in ClC(Cl)Cl): 451 nm
emission maximum (in O): 518 nm

Structure (SMILES): Cc1ccc(CN2/C(=C/C=C3\CCCC(/C=C/C4=[N+](Cc5ccc(C)cc5)c5ccccc5C4(C)C)=C3Cl)C(C)(C)c3ccccc32)cc1
emission maximum (in CO): 813 nm

Structure (SMILES): CC(C)(C)c1cc(-c2c3cccc4c5cccc6c(-c7cc(C(C)(C)C)cc(C(C)(C)C)c7)c7cccc8c9cccc2c9c(c34)c(c65)c78)cc(C(C)(C)C)c1
emission maximum (in Cc1ccccc1): 701 nm

Structure (SMILES): CN(C)c1ccc(/C=C/c2nc3ccccc3s2)cc1
emission maximum (in C1CCCCC1): 447 nm
emission maximum (in C1CCOC1): 482 nm
emission maximum (in C1COCCO1): 467 nm
emission maximum (in CC#N): 504 nm
emission maximum (in CC(C)O): 493 nm
emission maximum (in CCCCCC): 445 nm
emission maximum (in CCCCCCC): 446 nm
emission maximum (in CCO): 498 nm
emission maximum (in CCOC(C)=O): 477 nm
emission maximum (in CCOCC): 460 nm
emission maximum (in CN(C)C=O): 504 nm
emission maximum (in CO): 507 nm
emission maximum (in CS(C)=O): 513 nm
emission maximum (in O): 516 nm
emission maximum (in OCC(O)CO): 530 nm

Structure (SMILES): CC(C)(C)c1ccc2c(c1)c1cc(C(C)(C)C)ccc1n2-c1ccc(C#Cc2ccc(C=C(C#N)C#N)cc2)cc1
emission maximum (in CC#N): 490 nm
emission maximum (in CCCCC): 448 nm
emission maximum (in Cc1ccccc1): 554 nm
emission maximum (in ClCCl): 534 nm

Structure (SMILES): CC(C)(C)c1ccc2c(c1)c1cc(C(C)(C)C)ccc1n2-c1ccc(-c2nc(-c3ccccc3)nc(-c3ccccc3)n2)c2c1c1ccccc1n2-c1ccccc1
emission maximum (in C1CCOC1): 450 nm
emission maximum (in Cc1ccccc1): 417 nm
emission maximum (in ClCCl): 474.77 nm

Structure (SMILES): CCCCCc1c(C(=O)c2ccc3c4c(cccc24)-c2cccc4c2C3CC=C4)c2ccc3cccc4c5cccc6ccc1c(c65)c2c34 (stereo not given)
emission maximum (in ClCCl): 525 nm

Structure (SMILES): c1ccc2c(-c3cc(-c4nccs4)nc(-c4nccs4)c3)cccc2c1
emission maximum (in CC#N): 386 nm
emission maximum (in CCCCCC): 359 nm
emission maximum (in CO): 422 nm
emission maximum (in ClC(Cl)Cl): 377 nm

Structure (SMILES): N#Cc1cc(N2c3ccccc3Sc3ccccc32)c(N2c3ccccc3Sc3ccccc32)cc1C#N
emission maximum (in c1ccc2c(c1)c1ccccc1n2-c1ccc(-c2ccc(-n3c4ccccc4c4ccccc43)cc2)cc1): 605 nm

Structure (SMILES): C/C(=C\c1ccc(Cl)cc1)c1nc2ccccc2s1
emission maximum (in C1CCCCC1): 390 nm
emission maximum (in CO): 400 nm

Structure (SMILES): O=C(c1ccncc1)c1ccc(-n2c3ccccc3c3cc(-n4c5ccccc5c5ccccc54)ccc32)cc1
emission maximum (in Cc1ccccc1): 480 nm
emission maximum (in c1cc(-c2cccc(-n3c4ccccc4c4ccccc43)c2)cc(-n2c3ccccc3c3ccccc32)c1): 475.23 nm

Structure (SMILES): COc1ccc(C2=C3C=c4c(oc5cc6c(cc45)[C@H]4CC[C@]5(C)C(=O)CC[C@H]5[C@@H]4CC6)=[N+]3[B-](F)(F)n3c2cc2c4cc5c(cc4oc23)CC[C@@H]2[C@@H]5CC[C@]3(C)C(=O)CC[C@@H]23)cc1
emission maximum (in CCOC(C)=O): 615 nm
emission maximum (in CCOCC): 611.5 nm
emission maximum (in CO): 613.5 nm

Structure (SMILES): C[N+]1=C(/C=C/C=C2/N(CCCS(=O)(=O)[O-])c3ccccc3C2(C)C)C(C)(C)c2ccccc21
emission maximum (in CS(C)=O): 565 nm

Structure (SMILES): O=C(O)CCCCCNC(=O)c1cccc2c(=O)c3ccccc3[nH]c12
emission maximum (in O): 438 nm

Structure (SMILES): Cc1ccc2cc(C)ccc2c1
emission maximum (in C1CCCCC1): 342.82 nm

Structure (SMILES): Oc1ccc(C2=N[N+]3=Cc4c(ccc5ccccc45)O[B-]3(c3ccc([B-]45OC(c6ccc(O)cc6)=N[N+]4=Cc4c(ccc6ccccc46)O5)cc3)O2)cc1 (stereo not given)
emission maximum (in C1CCOC1): 477 nm

Structure (SMILES): CN(C)c1cc2c(cc1F)c(=O)c1cc(F)c(N)cc1n2C
emission maximum (in CCO): 432 nm

Structure (SMILES): c1ccc(-p2c(-c3cccs3)cc3ccccc32)cc1 (stereo not given)
emission maximum (in C1CCOC1): 417 nm

Structure (SMILES): CC(C)(C)c1cc2c(c(C(C)(C)C)c1)O[B-](F)(F)[n+]1c-2nc(-c2ccccc2)c2cc(Cl)ccc21
emission maximum (in Cc1ccccc1): 552 nm

Structure (SMILES): [NH3+]C(Cc1ccc(O)cc1)C(=O)[O-] (stereo not given)
emission maximum (in O): 304 nm

Structure (SMILES): [O-][n+]1c(/C=C/c2ccccc2)nc(Nc2ccccc2)c2c1CCCC2
emission maximum (in ClCCl): 508 nm

Structure (SMILES): Cc1ccc(C(=O)NN2C3=C(CC4=C2CCCC4=O)C(=O)CCC3)cc1
emission maximum (in C1CCOC1): 435 nm
emission maximum (in CC#N): 343 nm
emission maximum (in CC(C)=O): 368 nm
emission maximum (in CCCCCO): 445 nm
emission maximum (in CO): 447 nm
emission maximum (in ClC(Cl)Cl): 438 nm
emission maximum (in ClCCl): 435 nm

Structure (SMILES): C=Cc1cc2ccc(N(CC)CC)cc2oc1=O
emission maximum (in CC#N): 470 nm

Structure (SMILES): N#Cc1nc(-n2c3ccccc3c3ccccc32)cc(-n2c3ccccc3c3ccccc32)n1
emission maximum (in Cc1ccccc1): 518 nm

Structure (SMILES): O=c1c2ccccc2nc2ccc(-c3ccc(N(c4ccccc4)c4ccccc4)cc3)cn12
emission maximum (in ClCCl): 521 nm

Structure (SMILES): CN(C)c1ccc(C2=CC3=C(c4ccc([N+](=O)[O-])cc4)[C@H]4c5ccccc5[C@]3(S2)c2ccccc24)cc1
emission maximum (in ClCCl): 625 nm

Other lines, results leading:

emission maximum (in ClCCl): 510 nm
Structure (SMILES): COC(=O)C1=C(C(=O)OC)C2(c3ccccc3-c3ccc([N+](=O)[O-])cc32)C2(/C=C/c3ccccc3)c3cc(OC)c(OC)cc3CCN12 (stereo not given)

emission maximum (in ClCCl): 642 nm
Structure (SMILES): CN(C)c1ccc(C2=Nc3ccc4c(C(F)(F)F)cc(C(F)(F)F)nc4[n+]3[B-](F)(F)O2)cc1

emission maximum (in CC#N): 460 nm
Structure (SMILES): Fc1nc(F)c(F)c(C#Cc2cc3c(cc2C#Cc2c(F)c(F)nc(F)c2F)OC2(CCCCC2)O3)c1F

emission maximum (in ClCCl): 420 nm
Structure (SMILES): COc1ccc(/C=C/c2ncc(-c3ccccc3)o2)cc1OC

emission maximum (in c1ccccc1): 461 nm
Structure (SMILES): Cc1nc2c(ccc3ccc(O)cc32)oc1=O

emission maximum (in CC#N): 583.94 nm
Structure (SMILES): COc1ccc(-c2nc3ccccc3nc2/C=C/N2CCCC2)s1

emission maximum (in C1CCOC1): 684 nm
emission maximum (in CS(C)=O): 695 nm
emission maximum (in ClCCl): 687 nm
Structure (SMILES): COCCOCCOCCOc1ccc(/C=C/C2=[N+]3C(=C(c4cc(OC)cc(OC)c4)c4c(C)c(I)c(/C=C/c5ccc(OCCOCCOCCOC)cc5)n4[B-]3(F)F)C(C)=C2I)cc1

emission maximum (in ClCCl): 693 nm
Structure (SMILES): CC1=[N+]2C(=Cc3c4c(cn3[B-]2(F)F)-c2nc-4c(-c3ccccc3)c3ccc([nH]3)c(-c3ccccc3)c3nc(c(-c4ccccc4)c4ccc([nH]4)c2-c2ccccc2)C=C3)C(C)C1 (stereo not given)

emission maximum (in C1CCOC1): 560 nm
emission maximum (in CN1CCCC1=O): 595 nm
emission maximum (in CN(C)C=O): 572 nm
Structure (SMILES): O=C1OC(=O)c2cc(Oc3ccccc3)c3c4ccc5c6c(cc(Oc7ccccc7)c(c7ccc1c2c73)c64)C(=O)OC5=O

emission maximum (in ClCCl): 616 nm
Structure (SMILES): CN(C)c1ccc(C2=CC3=C(c4ccc(C=O)cc4)[C@H]4c5ccccc5[C@]3(S2)c2ccccc24)cc1

emission maximum (in ClCCl): 455 nm
Structure (SMILES): Cc1ccccc1-c1c2cccc3c(-c4ccc(C(C)(C)C)cc4)cc4c(-c5ccccc5C)c5cccc6c(-c7ccc(C(C)(C)C)cc7)cc1c(c65)c4c32

emission maximum (in ClC(Cl)Cl): 592 nm
Structure (SMILES): Cc1ccc(CN(Cc2ccc(C)cc2)c2nc(C#N)c(N(Cc3ccc(C)cc3)Cc3ccc(C)cc3)nc2C#N)cc1

emission maximum (in ClC(Cl)Cl): 517.6 nm
Structure (SMILES): CO[B-]1(OC)n2c(C)cc(C)c2C(c2ccc(I)cc2)=C2C(C)=CC(C)=[N+]21

emission maximum (in CC#N): 490 nm
Structure (SMILES): N#C/C(=C\c1ccc(C(F)(F)F)cc1)c1nc(-c2ccc(Cl)cc2)cs1

emission maximum (in CS(C)=O): 572 nm
emission maximum (in ClCCl): 540 nm
Structure (SMILES): CCN(CC)c1ccc2c(c1)oc(=O)c1c(=O)oc3cc(Br)ccc3c12

emission maximum (in C1CCCCC1): 294.99 nm
Structure (SMILES): Oc1ccccc1

emission maximum (in ClCCl): 501 nm
Structure (SMILES): C[Si]1(C)O[Si](C)(C)c2cc3nc4ccccc4c(-c4ccccc4)c3cc2[Si](C)(C)O1
